Assay [1] relates to Mo7e cells which endogenously express c-kit. In words: Mo7e assay: inhibition of SCF dependent proliferation (MTT). It counts as cell-based. The method in brief: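 Mo7e cells stimulated with human recombinant SCF and exposed to two-fold serial compound dilutions from a top concentration of 10 μM. After 48 h at 37 °C, viability measured by MTT colorimetric assay; IC50 derived.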

The subject of a further assay is Human TG/HA-VSMC cells. In words: Human TG/HA-VSMC proliferation assay (PDGF-BB, CellTiter-Glo). The assay is classed as cell-based. The settings on record: Biological data table, PDGF-BB stimulated. As for the experimental part: Human TG/HA-VSMC Proliferation Assay
Human TG/HA-VSMC cells (ATCC) were resuspended in DMEM supplemented with 1% FBS and 30 ng/mL recombinant human PDGF-BB at 60,000 cells/mL. The cells were aliquoted into 384 well plates at 50 μL/well and incubated for 4 hours at 37° C. in a humidified incubator in the presence of 5% carbon dioxide. 0.5 μL of test compound diluted in DMSO was added to each well. The plates were returned to the incubator for a further 68 hours. 25 μL of CellTiter-Glo (Promega) was added to each well and the plates were incubated on the bench for 15 minutes. Luminescence was then read using a CLIPR CCD camera (Molecular Devices).
(In ATP-based viability assays light output follows the ATP content of the culture.)

[2] abbreviates: Mo7e, Biological data table (selectivity c-kit over PDGFR).
[3] abbreviates: Table 1, SCF stimulated Mo7e cells, 48 hours, MTT.

The structures appear in SMILES notation.

For orientation: IC50 means the concentration at which inhibition is half-maximal. As for `Cc1cc2c(cn1)cc(-c1cc(Nc3noc(C4CC4)n3)ccc1C)c(=O)n2C` [Compound A3, 3-(5-(5-cyclopropyl-1,2,4-oxadiazol-3-ylamino)-2-methylphenyl)-1,7-dimethyl-1,6-naphthyridin-2(1H)-one], the IC50 came to 16 nM in assay [1] (setting [2]), 16 nM in assay [1] (setting [3]) and 506 nM with Human TG/HA-VSMC cells.

Take `COc1ccc(-c2nc(Nc3ccc(C)c(-c4cc5cnc(C)cc5n(C)c4=O)c3)no2)cc1` [Compound A14, 3-(5-{[5-(4-methoxyphenyl)-1,2,4-oxadiazol-3-yl]amino}-2-methylphenyl)-1,7-dimethyl-1,2-dihydro-1,6-naphthyridin-2-one]: the IC50 came to 14 nM in assay [1] (setting [2]), 14 nM in assay [1] (setting [3]) and 1820 nM in the assay on Human TG/HA-VSMC cells.

As to `Cc1ccc(-c2nnc(Nc3ccc(C)c(-c4cc5cnc(C)cc5n(C)c4=O)c3)o2)cc1` [Compound B1, 1,7-dimethyl-3-(2-methyl-5-{[5-(4-methylphenyl)-1,3,4-oxadiazol-2-yl]amino}phenyl)-1,2-dihydro-1,6-naphthyridin-2-one], the results for the IC50 (in assay [1] (setting [2]); in assay [1] (setting [3]); in the assay on Human TG/HA-VSMC cells) were 76 nM, 76 nM and 2260 nM, respectively.

Turning to `Cc1cc2c(cn1)cc(-c1cc(Nc3nnc(-c4ccccc4)[nH]3)ccc1C)c(=O)n2C` [Compound C6, 1,7-dimethyl-3-(2-methyl-5-(5-phenyl-4H-1,2,4-triazol-3-ylamino)phenyl)-1,6-naphthyridin-2(1H)-one], the values for the IC50 (in assay [1] (setting [2]); in assay [1] (setting [3]); in the assay with Human TG/HA-VSMC cells) were 335 nM, 335 nM and 3390 nM, respectively.

As to `Cc1cc2c(cn1)cc(-c1cc(Nc3cc(C4CC4)on3)ccc1C)c(=O)n2C` [Compound D4, 3-(5-(5-cyclopropylisoxazol-3-ylamino)-2-methylphenyl)-1,7-dimethyl-1,6-naphthyridin-2(1H)-one], inhibition in assay [1] (setting [3]) was half-maximal at 56 nM (IC50).

With `Cc1cc2c(cn1)cc(-c1cc(Nc3cc(C4CCCO4)on3)ccc1C)c(=O)n2C` (centres unmarked) [Compound D5], it took 197 nM to reach half-maximal inhibition in assay [1] (setting [3]) (IC50).

As to `Cc1cc2c(cn1)cc(-c1cc(Nc3cc(-c4ccc(Br)cn4)on3)ccc1C)c(=O)n2C` [Compound D6], it took 229 nM to reach half-maximal inhibition in assay [1] (setting [3]) (IC50).

In turn, `Cc1cc2c(cn1)cc(-c1cc(Nc3cc(-c4ccc(Cl)cc4Cl)on3)ccc1C)c(=O)n2C` [Compound D7] registered an IC50 in assay [1] (setting [3]) of 401 nM.

`Cc1cc2c(cn1)cc(-c1cc(Nc3cc(-c4ccc(F)cc4Cl)on3)ccc1C)c(=O)n2C` [Compound D8]: the IC50 in assay [1] (setting [3]) amounted to 361 nM.

As to `Cc1cc2c(cn1)cc(-c1cc(Nc3cc(-c4nccs4)on3)ccc1C)c(=O)n2C` [Compound D9, 1,7-dimethyl-3-(2-methyl-5-(5-(thiazol-2-yl)isoxazol-3-ylamino)phenyl)-1,6-naphthyridin-2(1H)-one], the values for the IC50 (in assay [1] (setting [2]); in assay [1] (setting [3]); in the assay on Human TG/HA-VSMC cells) were 141 nM, 141 nM and 1070 nM, respectively.

In assay [1] (setting [3]), `Cc1cc2c(cn1)cc(-c1cc(Nc3noc(-c4ccccc4)c3C)ccc1C)c(=O)n2C` [Compound D10] returned an IC50 of 339 nM.

As to `Cc1cc2c(cn1)cc(-c1cc(Nc3cc(-c4ccc(F)cc4)on3)ccc1C)c(=O)n2C` [Compound D11], in assay [1] (setting [3]), the IC50 was 82 nM.

As for `Cc1cc2c(cn1)cc(-c1cc(Nc3cc(-c4ccc(Cl)nc4)on3)ccc1C)c(=O)n2C` [Compound D12], it took 198 nM to reach half-maximal inhibition in assay [1] (setting [3]) (IC50).

Regarding `CC(=NO)c1cc(Nc2ccc(C)c(-c3cc4cnc(C)cc4n(C)c3=O)c2)no1` [Compound D13], in assay [1] (setting [3]), the IC50 worked out at 476 nM.

As to `Cc1cc2c(cn1)cc(-c1cc(Nc3cc(C(C)C)on3)ccc1C)c(=O)n2C` [Compound D14], the IC50 in assay [1] (setting [3]) stood at 144 nM.

Take `Cc1cc2c(cn1)cc(-c1cc(Nc3nc(-c4ccccc4)no3)ccc1C)c(=O)n2C` [Compound E1, 1,7-dimethyl-3-{2-methyl-5-[(3-phenyl-1,2,4-oxadiazol-5-yl)amino]phenyl}-1,2-dihydro-1,6-naphthyridin-2-one]: the IC50 in assay [1] (setting [3]) amounted to 423 nM.

Turning to `Cc1cc2c(cn1)cc(-c1cc(Nc3nc(-c4ccccn4)no3)ccc1C)c(=O)n2C` [Compound E2, 1,7-dimethyl-3-(2-methyl-5-(3-(pyridin-2-yl)-1,2,4-oxadiazol-5-ylamino)phenyl)-1,6-naphthyridin-2(1H)-one], the IC50 in assay [1] (setting [2]) was 256 nM; in assay [1] (setting [3]) it was 256 nM; with Human TG/HA-VSMC cells, 2360 nM.

Molecule `Cc1cc2c(cn1)cc(-c1cc(Nc3nc(C(C)C)no3)ccc1C)c(=O)n2C` [Compound E3, 3-(5-(3-isopropyl-1,2,4-oxadiazol-5-ylamino)-2-methylphenyl)-1,7-dimethyl-1,6-naphthyridin-2(1H)-one] displayed an IC50 in assay [1] (setting [3]) of 181 nM.

Turning to `Cc1cc2c(cn1)cc(-c1cc(Nc3cc(-c4nccs4)no3)ccc1C)c(=O)n2C` [Compound F1, 1,7-dimethyl-3-(2-methyl-5-(3-(thiazol-2-yl)isoxazol-5-ylamino)phenyl)-1,6-naphthyridin-2(1H)-one], the IC50 in assay [1] (setting [2]) was 111 nM; in assay [1] (setting [3]), 111 nM; in the assay with Human TG/HA-VSMC cells, 2140 nM.

Turning to `Cc1cc2c(cn1)cc(-c1cc(Nc3nsc(-c4ccccc4)n3)ccc1C)c(=O)n2C` [Compound G1, 1,7-dimethyl-3-(2-methyl-5-(5-phenyl-1,2,4-thiadiazol-3-ylamino)phenyl)-1,6-naphthyridin-2(1H)-one], the IC50 in assay [1] (setting [3]) was 733 nM.

The molecule `Cc1cc2c(cn1)cc(-c1cc(Nc3nnc(-c4ccccc4)s3)ccc1C)c(=O)n2C` [Compound H1, 1,7-dimethyl-3-(2-methyl-5-(5-phenyl-1,3,4-thiadiazol-2-ylamino)phenyl)-1,6-naphthyridin-2(1H)-one] had an IC50 in assay [1] (setting [3]) of 552 nM.

These data come from patent US8278452B2, “Heterocyclic compounds and compositions as c-kit and PDGFR kinase inhibitors” (IRM LLC, priority 2008, dated 2012).
